The text below walks through data of US20050119489A1, “4-Sulfide/sulfoxide/sulfonyl-1h-pyrazolyl derivative compounds, for use in diseases associated with the 5-ht2c receptor” (priority 2001, published 2005).

Structures can show the parent of a compound that is named as a salt.

Data set [1] deals with T1, 5-HT2C receptor (Homo sapiens, UniProt P28335).
T1 sequence (P28335 33-458): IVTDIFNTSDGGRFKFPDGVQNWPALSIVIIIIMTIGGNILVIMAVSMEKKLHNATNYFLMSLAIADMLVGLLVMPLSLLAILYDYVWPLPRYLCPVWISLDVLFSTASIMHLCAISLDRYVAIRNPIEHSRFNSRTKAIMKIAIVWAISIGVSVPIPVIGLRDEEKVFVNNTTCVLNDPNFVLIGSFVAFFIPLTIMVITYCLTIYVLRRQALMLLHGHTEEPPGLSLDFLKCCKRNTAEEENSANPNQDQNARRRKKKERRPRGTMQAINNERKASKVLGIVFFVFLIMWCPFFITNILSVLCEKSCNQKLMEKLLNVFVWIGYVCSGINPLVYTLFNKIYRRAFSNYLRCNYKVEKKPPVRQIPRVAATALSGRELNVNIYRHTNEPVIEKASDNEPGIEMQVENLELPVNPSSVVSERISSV
To be noted: cited from earlier work.

The target of data set [2] is 5-HT2 receptors. To be noted: cited from earlier work.

In the case of `CCc1nn(C[C@H](C)N)c(CC)c1S(=O)(=O)c1ccc(N2CCCC(C)(C)C2=O)cc1.Cl`, the melting point (usually the temperature of the solid-liquid transition) was found to be 131 °C.
Same read-out and setting: with `CCc1nn(CCNC)c(CC)c1Sc1ccc(F)cc1.O=C(O)/C=C\C(=O)O` the figure was 95 to 97 °C; with `CCc1nn(CC(C)(C)N)c(CC)c1Sc1ccc(F)cc1.O=C(O)/C=C\C(=O)O`, 120 to 122 °C.
`CCc1nn(C(C)CN)c(CC)c1Sc1ccc(F)cc1.O=C(O)/C=C\C(=O)O` (stereo not drawn) returned a melting point of 162 °C.
Consider `Cc1nn(CCN)c(C)c1Sc1ccccc1` (as salt: HCl) [Example 2, 2-[3,5-dimethyl-4-(phenylsulfanyl)-1H-pyrazol-1-yl]ethylamine], for which the melting point is 185 to 188 °C.
For the molecule `CCc1nn(C(C)C(N)=O)c(CC)c1Sc1ccc(F)cc1` (stereo not drawn) (as salt: hydrochloride), the melting point was 167 °C.
Regarding `CCc1nn(CCN)c(CC)c1Sc1nnnn1C` (as salt: salt) [Example 204], the melting point worked out at 148 °C.
Still for that read-out and setting: the figure for `CCc1nn(CCN)c(CC)c1Sc1nccc(C(F)(F)F)n1` (as salt: salt) [Example 205] is 154 °C; for `CCc1nn(CCNC)c(CC)c1S(=O)(=O)c1ccc(N2C(=O)CC(C)(C)C2=O)cc1` [Example 160, 1-[4-({3,5-diethyl-1-[2-(methylamino)ethyl]-1H-pyrazol-4-yl}sulfonyl)phenyl]-3,3-dimethyl-2,5-pyrrolidinedione] it is 84 to 86 °C.
Regarding `Cc1cc2c(cc1Cl)N(C(=O)Nc1ccc(Oc3cccnc3C)nc1)CC2` [SB-242084], the “selectivity as 5-HT2C receptor antagonist” value in data set [1] is “at least 100 fold”.
In the case of `Cc1nc2sccn2c(=O)c1CCN1CCC(=C(c2ccc(F)cc2)c2ccc(F)cc2)CC1` [ritanserin], in data set [2], the “pKi for the 5-HT2 receptors” value is 8.9 and the “selectivity for the 5-HT2 receptors over 5-HT, receptors” value is 10,000 fold.
